# Assay results: ChEMBL document CHEMBL1201861, “Genomics of Drug Sensitity in Cancer screening data, Wellcome Trust Sanger Institute”
# System: TE-441-T
# Assay: cells
# Format: functional, cell-based, Homo sapiens
# Settings: Homo sapiens, TE-441-T
# Description: SANGER: Inhibition of human TE-441-T cell growth in a cell viability assay.
row,Structure (SMILES),IC50
1,C=C(c1ccc(C(=O)O)cc1)c1cc2c(cc1C)C(C)(C)CCC2(C)C [BEXAROTENE],> 8 µM

# System: NCI-H2087;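 further: growth inhibition determined with a cell viability readout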
# Assay: cells
# Format: functional, cell-based, Homo sapiens
# Settings: Homo sapiens, NCI-H2087
# Description: SANGER: Inhibition of human NCI-H2087 cell growth in a cell viability assay.
row,Structure (SMILES),IC50
1,C=C(c1ccc(C(=O)O)cc1)c1cc2c(cc1C)C(C)(C)CCC2(C)C [BEXAROTENE],> 8 µM

# System: MDA-MB-453
# Assay: cells
# Format: functional, cell-based, Homo sapiens
# Settings: Homo sapiens, MDA-MB-453
# Description: SANGER: Inhibition of human MDA-MB-453 cell growth in a cell viability assay.
row,Structure (SMILES),IC50
1,C=C(c1ccc(C(=O)O)cc1)c1cc2c(cc1C)C(C)(C)CCC2(C)C [BEXAROTENE],> 8 µM

# System: LOX IMVI
# Assay: cells
# Format: functional, cell-based, Homo sapiens
# Settings: Homo sapiens, LOX IMVI
# Description: SANGER: Inhibition of human LOXIMVI cell growth in a cell viability assay.
row,Structure (SMILES),IC50
1,C=C(c1ccc(C(=O)O)cc1)c1cc2c(cc1C)C(C)(C)CCC2(C)C [BEXAROTENE],> 8 µM

# System: PC-14;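 further: cell viability assay measuring inhibition of PC-14 cell growth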
# Assay: cells
# Format: functional, cell-based, Homo sapiens
# Settings: Homo sapiens, PC-14
# Description: SANGER: Inhibition of human PC-14 cell growth in a cell viability assay.
row,Structure (SMILES),IC50
1,C=C(c1ccc(C(=O)O)cc1)c1cc2c(cc1C)C(C)(C)CCC2(C)C [BEXAROTENE],> 8 µM

# System: SKG-IIIa;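 further: cell growth inhibition, read out with a cell viability assay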
# Assay: cells
# Format: functional, cell-based, Homo sapiens
# Settings: Homo sapiens, SKG-IIIa
# Description: SANGER: Inhibition of human SKG-IIIa cell growth in a cell viability assay.
row,Structure (SMILES),IC50
1,C=C(c1ccc(C(=O)O)cc1)c1cc2c(cc1C)C(C)(C)CCC2(C)C [BEXAROTENE],> 8 µM

# System: NCI-H2347;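 further: growth inhibition of the cell line, read out with a cell viability assay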
# Assay: cells
# Format: functional, cell-based, Homo sapiens
# Settings: Homo sapiens, NCI-H2347
# Description: SANGER: Inhibition of human NCI-H2347 cell growth in a cell viability assay.
row,Structure (SMILES),IC50
1,C=C(c1ccc(C(=O)O)cc1)c1cc2c(cc1C)C(C)(C)CCC2(C)C [BEXAROTENE],> 8 µM

# System: OCI-AML2;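 further: growth inhibition of OCI-AML2 cells, read out with a cell viability assay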
# Assay: cells
# Format: functional, cell-based, Homo sapiens
# Settings: Homo sapiens, OCI-AML2
# Description: SANGER: Inhibition of human OCI-AML2 cell growth in a cell viability assay.
row,Structure (SMILES),IC50
1,C=C(c1ccc(C(=O)O)cc1)c1cc2c(cc1C)C(C)(C)CCC2(C)C [BEXAROTENE],> 8 µM

# System: A 172;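 further: growth inhibition of A172 cells, measured with a cell viability readout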
# Assay: cells
# Format: functional, cell-based, Homo sapiens
# Settings: Homo sapiens, A 172
# Description: SANGER: Inhibition of human A172 cell growth in a cell viability assay.
row,Structure (SMILES),IC50
1,C=C(c1ccc(C(=O)O)cc1)c1cc2c(cc1C)C(C)(C)CCC2(C)C [BEXAROTENE],> 8 µM

# System: Huh-7;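 further: HuH-7 cell growth inhibition, read out with a cell viability assay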
# Assay: cells
# Format: functional, cell-based, Homo sapiens
# Settings: Homo sapiens, Huh-7
# Description: SANGER: Inhibition of human HuH-7 cell growth in a cell viability assay.
row,Structure (SMILES),IC50
1,C=C(c1ccc(C(=O)O)cc1)c1cc2c(cc1C)C(C)(C)CCC2(C)C [BEXAROTENE],> 8 µM

# System: MC-CAR;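 further: growth inhibition of the human MC-CAR cell line, read out by a cell viability assay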
# Assay: cells
# Format: functional, cell-based, Homo sapiens
# Settings: Homo sapiens, MC-CAR
# Description: SANGER: Inhibition of human MC-CAR cell growth in a cell viability assay.
row,Structure (SMILES),IC50
1,C=C(c1ccc(C(=O)O)cc1)c1cc2c(cc1C)C(C)(C)CCC2(C)C [BEXAROTENE],> 8 µM

# System: HOP-62
# Assay: cells
# Format: functional, cell-based, Homo sapiens
# Settings: Homo sapiens, HOP-62
# Description: SANGER: Inhibition of human HOP-62 cell growth in a cell viability assay.
row,Structure (SMILES),IC50
1,C=C(c1ccc(C(=O)O)cc1)c1cc2c(cc1C)C(C)(C)CCC2(C)C [BEXAROTENE],> 8 µM

# System: G-401
# Assay: cells
# Format: functional, cell-based, Homo sapiens
# Settings: Homo sapiens, G-401
# Description: SANGER: Inhibition of human G-401 cell growth in a cell viability assay.
row,Structure (SMILES),IC50
1,C=C(c1ccc(C(=O)O)cc1)c1cc2c(cc1C)C(C)(C)CCC2(C)C [BEXAROTENE],> 8 µM

# System: CTB-1
# Assay: cells
# Format: functional, cell-based, Homo sapiens
# Settings: Homo sapiens, CTB-1
# Description: SANGER: Inhibition of human CTB-1 cell growth in a cell viability assay.
row,Structure (SMILES),IC50
1,C=C(c1ccc(C(=O)O)cc1)c1cc2c(cc1C)C(C)(C)CCC2(C)C [BEXAROTENE],> 8 µM

# System: HCC1395;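 further: growth inhibition of HCC1395 cells, read out by a cell viability assay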
# Assay: cells
# Format: functional, cell-based, Homo sapiens
# Settings: Homo sapiens, HCC1395
# Description: SANGER: Inhibition of human HCC1395 cell growth in a cell viability assay.
row,Structure (SMILES),IC50
1,C=C(c1ccc(C(=O)O)cc1)c1cc2c(cc1C)C(C)(C)CCC2(C)C [BEXAROTENE],> 8 µM

# System: CAPAN-1;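 further: growth suppression of CAPAN-1 cells, read out by a cell viability assay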
# Assay: cells
# Format: functional, cell-based, Homo sapiens
# Settings: Homo sapiens, CAPAN-1
# Description: SANGER: Inhibition of human CAPAN-1 cell growth in a cell viability assay.
row,Structure (SMILES),IC50
1,C=C(c1ccc(C(=O)O)cc1)c1cc2c(cc1C)C(C)(C)CCC2(C)C [BEXAROTENE],> 8 µM

# System: UMUC3;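 further: growth inhibition of human UM-UC-3 cells, read out with a cell viability assay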
# Assay: cells
# Format: functional, cell-based, Homo sapiens
# Settings: Homo sapiens, UMUC3
# Description: SANGER: Inhibition of human UM-UC-3 cell growth in a cell viability assay.
row,Structure (SMILES),IC50
1,C=C(c1ccc(C(=O)O)cc1)c1cc2c(cc1C)C(C)(C)CCC2(C)C [BEXAROTENE],> 8 µM

# System: T98G;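 further: growth inhibition of T98G cells, read out by a cell viability assay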
# Assay: cells
# Format: functional, cell-based, Homo sapiens
# Settings: Homo sapiens, T98G
# Description: SANGER: Inhibition of human T98G cell growth in a cell viability assay.
row,Structure (SMILES),IC50
1,C=C(c1ccc(C(=O)O)cc1)c1cc2c(cc1C)C(C)(C)CCC2(C)C [BEXAROTENE],> 8 µM

# System: NB13;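 further: cell viability readout measuring growth inhibition of human NB13 cells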
# Assay: cells
# Format: functional, cell-based, Homo sapiens
# Settings: Homo sapiens, NB13
# Description: SANGER: Inhibition of human NB13 cell growth in a cell viability assay.
row,Structure (SMILES),IC50
1,C=C(c1ccc(C(=O)O)cc1)c1cc2c(cc1C)C(C)(C)CCC2(C)C [BEXAROTENE],> 8 µM

# System: SBC-1;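 further: cell viability assay measuring growth inhibition of the SBC-1 cell line, IC50 being the concentration that halves growth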
# Assay: cells
# Format: functional, cell-based, Homo sapiens
# Settings: Homo sapiens, SBC-1
# Description: SANGER: Inhibition of human SBC-1 cell growth in a cell viability assay.
row,Structure (SMILES),IC50
1,C=C(c1ccc(C(=O)O)cc1)c1cc2c(cc1C)C(C)(C)CCC2(C)C [BEXAROTENE],> 8 µM

# System: CAL-33;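 further: growth inhibition of CAL-33 cells, read out with a cell viability assay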
# Assay: cells
# Format: functional, cell-based, Homo sapiens
# Settings: Homo sapiens, CAL-33
# Description: SANGER: Inhibition of human CAL-33 cell growth in a cell viability assay.
row,Structure (SMILES),IC50
1,C=C(c1ccc(C(=O)O)cc1)c1cc2c(cc1C)C(C)(C)CCC2(C)C [BEXAROTENE],> 8 µM

# System: ST486
# Assay: SANGER: Inhibition of human ST486 cell growth in a cell viability assay.
# Format: functional, cell-based
# Settings: Homo sapiens, ST486
row,Structure (SMILES),IC50
1,C=C(c1ccc(C(=O)O)cc1)c1cc2c(cc1C)C(C)(C)CCC2(C)C [BEXAROTENE],> 8 µM

# System: GI-ME-N;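 further: growth inhibition of human GI-ME-N cells, read out with a cell viability assay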
# Assay: cells
# Format: functional, cell-based, Homo sapiens
# Settings: Homo sapiens, GI-ME-N
# Description: SANGER: Inhibition of human GI-ME-N cell growth in a cell viability assay.
row,Structure (SMILES),IC50
1,C=C(c1ccc(C(=O)O)cc1)c1cc2c(cc1C)C(C)(C)CCC2(C)C [BEXAROTENE],> 8 µM

# System: MZ2-MEL;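 further: growth inhibition of MZ2-MEL cells read out with a cell viability assay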
# Assay: cells
# Format: functional, cell-based, Homo sapiens
# Settings: Homo sapiens, MZ2-MEL
# Description: SANGER: Inhibition of human MZ2-MEL cell growth in a cell viability assay.
row,Structure (SMILES),IC50
1,C=C(c1ccc(C(=O)O)cc1)c1cc2c(cc1C)C(C)(C)CCC2(C)C [BEXAROTENE],> 8 µM

# System: BXPC-3;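 further: growth inhibition of human BxPC-3 cells, read out by a cell viability assay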
# Assay: cells
# Format: functional, cell-based, Homo sapiens
# Settings: Homo sapiens, BXPC-3
# Description: SANGER: Inhibition of human BxPC-3 cell growth in a cell viability assay.
row,Structure (SMILES),IC50
1,C=C(c1ccc(C(=O)O)cc1)c1cc2c(cc1C)C(C)(C)CCC2(C)C [BEXAROTENE],> 8 µM

# System: LN-405
# Assay: cells
# Format: functional, cell-based, Homo sapiens
# Settings: Homo sapiens, LN-405
# Description: SANGER: Inhibition of human LN-405 cell growth in a cell viability assay.
row,Structure (SMILES),IC50
1,C=C(c1ccc(C(=O)O)cc1)c1cc2c(cc1C)C(C)(C)CCC2(C)C [BEXAROTENE],> 8 µM

# System: 8505C
# Assay: cells
# Format: functional, cell-based, Homo sapiens
# Settings: Homo sapiens, 8505C
# Description: SANGER: Inhibition of human 8505C cell growth in a cell viability assay.
row,Structure (SMILES),IC50
1,C=C(c1ccc(C(=O)O)cc1)c1cc2c(cc1C)C(C)(C)CCC2(C)C [BEXAROTENE],> 8 µM

# System: GAK;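 further: cell growth inhibition read out by a cell viability assay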
# Assay: cells
# Format: functional, cell-based, Homo sapiens
# Settings: Homo sapiens, GAK
# Description: SANGER: Inhibition of human GAK cell growth in a cell viability assay.
row,Structure (SMILES),IC50
1,C=C(c1ccc(C(=O)O)cc1)c1cc2c(cc1C)C(C)(C)CCC2(C)C [BEXAROTENE],> 8 µM

# System: TE-1;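 further: growth inhibition of the human TE-1 cell line, read out with a cell viability assay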
# Assay: cells
# Format: functional, cell-based, Homo sapiens
# Settings: Homo sapiens, TE-1
# Description: SANGER: Inhibition of human TE-1 cell growth in a cell viability assay.
row,Structure (SMILES),IC50
1,C=C(c1ccc(C(=O)O)cc1)c1cc2c(cc1C)C(C)(C)CCC2(C)C [BEXAROTENE],> 8 µM

# System: Lu-65;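 further: growth inhibition of Lu-65 cancer cells, read out by a cell viability assay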
# Assay: cells
# Format: functional, cell-based, Homo sapiens
# Settings: Homo sapiens, Lu-65
# Description: SANGER: Inhibition of human LU-65 cell growth in a cell viability assay.
row,Structure (SMILES),IC50
1,C=C(c1ccc(C(=O)O)cc1)c1cc2c(cc1C)C(C)(C)CCC2(C)C [BEXAROTENE],> 8 µM

# System: U-698-M
# Assay: cells
# Format: functional, cell-based, Homo sapiens
# Settings: Homo sapiens, U-698-M
# Description: SANGER: Inhibition of human U-698-M cell growth in a cell viability assay.
row,Structure (SMILES),IC50
1,C=C(c1ccc(C(=O)O)cc1)c1cc2c(cc1C)C(C)(C)CCC2(C)C [BEXAROTENE],> 8 µM

# System: D-392MG
# Assay: cells
# Format: functional, cell-based, Homo sapiens
# Settings: Homo sapiens, D-392MG
row,Structure (SMILES),IC50
1,C=C(c1ccc(C(=O)O)cc1)c1cc2c(cc1C)C(C)(C)CCC2(C)C [BEXAROTENE],> 8 µM

# System: RPMI-2650
# Assay: cells
# Format: functional, cell-based, Homo sapiens
# Settings: Homo sapiens, RPMI-2650
# Description: SANGER: Inhibition of human RPMI-2650 cell growth in a cell viability assay.
row,Structure (SMILES),IC50
1,C=C(c1ccc(C(=O)O)cc1)c1cc2c(cc1C)C(C)(C)CCC2(C)C [BEXAROTENE],> 8 µM

# System: NCI-H1304;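 further: growth inhibition of the cancer cell line, measured in a cell viability assay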
# Assay: cells
# Format: functional, cell-based, Homo sapiens
# Settings: Homo sapiens, NCI-H1304
# Description: SANGER: Inhibition of human NCI-H1304 cell growth in a cell viability assay.
row,Structure (SMILES),IC50
1,C=C(c1ccc(C(=O)O)cc1)c1cc2c(cc1C)C(C)(C)CCC2(C)C [BEXAROTENE],> 8 µM

# System: ASPC1;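 further: growth inhibition of AsPC-1 cells, read out with a cell viability assay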
# Assay: cells
# Format: functional, cell-based, Homo sapiens
# Settings: Homo sapiens, ASPC1
# Description: SANGER: Inhibition of human AsPC-1 cell growth in a cell viability assay.
row,Structure (SMILES),IC50
1,C=C(c1ccc(C(=O)O)cc1)c1cc2c(cc1C)C(C)(C)CCC2(C)C [BEXAROTENE],> 8 µM

# System: MKN-45;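 further: growth inhibition of human MKN-45 cells, measured with a cell viability assay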
# Assay: cells
# Format: functional, cell-based, Homo sapiens
# Settings: Homo sapiens, MKN-45
# Description: SANGER: Inhibition of human MKN45 cell growth in a cell viability assay.
row,Structure (SMILES),IC50
1,C=C(c1ccc(C(=O)O)cc1)c1cc2c(cc1C)C(C)(C)CCC2(C)C [BEXAROTENE],> 8 µM

# System: NCI-H1581;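 further: cell growth inhibition read out by a viability assay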
# Assay: cells
# Format: functional, cell-based, Homo sapiens
# Settings: Homo sapiens, NCI-H1581
# Description: SANGER: Inhibition of human NCI-H1581 cell growth in a cell viability assay.
row,Structure (SMILES),IC50
1,C=C(c1ccc(C(=O)O)cc1)c1cc2c(cc1C)C(C)(C)CCC2(C)C [BEXAROTENE],> 8 µM

# System: FTC-133
# Assay: cells
# Format: functional, cell-based, Homo sapiens
# Settings: Homo sapiens, FTC-133
row,Structure (SMILES),IC50
1,C=C(c1ccc(C(=O)O)cc1)c1cc2c(cc1C)C(C)(C)CCC2(C)C [BEXAROTENE],> 8 µM

# System: RPMI 8402
# Assay: SANGER: Inhibition of human RPMI-8402 cell growth in a cell viability assay.
# Format: functional, cell-based
# Settings: Homo sapiens, RPMI 8402; read-out: IC50
row,Structure (SMILES),IC50
1,C=C(c1ccc(C(=O)O)cc1)c1cc2c(cc1C)C(C)(C)CCC2(C)C [BEXAROTENE],> 8 µM

# System: NCI-H1437;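 further: growth inhibition of human NCI-H1437 cells, read out by a cell viability assay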
# Assay: cells
# Format: functional, cell-based, Homo sapiens
# Settings: Homo sapiens, NCI-H1437
# Description: SANGER: Inhibition of human NCI-H1437 cell growth in a cell viability assay.
row,Structure (SMILES),IC50
1,C=C(c1ccc(C(=O)O)cc1)c1cc2c(cc1C)C(C)(C)CCC2(C)C [BEXAROTENE],> 8 µM

# System: NCI-H358;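 further: growth inhibition of NCI-H358 human cells, read out with a cell viability assay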
# Assay: cells
# Format: functional, cell-based, Homo sapiens
# Settings: Homo sapiens, NCI-H358
# Description: SANGER: Inhibition of human NCI-H358 cell growth in a cell viability assay.
row,Structure (SMILES),IC50
1,C=C(c1ccc(C(=O)O)cc1)c1cc2c(cc1C)C(C)(C)CCC2(C)C [BEXAROTENE],> 8 µM

# System: NCI-H716;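 further: growth inhibition of human NCI-H716 cells, measured by a cell viability assay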
# Assay: cells
# Format: functional, cell-based, Homo sapiens
# Settings: Homo sapiens, NCI-H716
# Description: SANGER: Inhibition of human NCI-H716 cell growth in a cell viability assay.
row,Structure (SMILES),IC50
1,C=C(c1ccc(C(=O)O)cc1)c1cc2c(cc1C)C(C)(C)CCC2(C)C [BEXAROTENE],> 8 µM

# System: KARPAS-299
# Assay: cells
# Format: functional, cell-based, Homo sapiens
# Settings: Homo sapiens, KARPAS-299
# Description: SANGER: Inhibition of human KARPAS-299 cell growth in a cell viability assay.
row,Structure (SMILES),IC50
1,C=C(c1ccc(C(=O)O)cc1)c1cc2c(cc1C)C(C)(C)CCC2(C)C [BEXAROTENE],> 8 µM

# System: BC-3;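 further: cell viability assay measuring growth inhibition of human BC-3 cells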
# Assay: cells
# Format: functional, cell-based, Homo sapiens
# Settings: Homo sapiens, BC-3
# Description: SANGER: Inhibition of human BC-3 cell growth in a cell viability assay.
row,Structure (SMILES),IC50
1,C=C(c1ccc(C(=O)O)cc1)c1cc2c(cc1C)C(C)(C)CCC2(C)C [BEXAROTENE],> 8 µM

# System: KU812 cell line;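 further: growth inhibition of KU812 cells, read out with a cell viability assay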
# Assay: cells
# Format: functional, cell-based, Homo sapiens
# Settings: Homo sapiens, KU812
# Description: SANGER: Inhibition of human KU812 cell growth in a cell viability assay.
row,Structure (SMILES),IC50
1,C=C(c1ccc(C(=O)O)cc1)c1cc2c(cc1C)C(C)(C)CCC2(C)C [BEXAROTENE],> 8 µM

# System: KY821;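 further: growth inhibition of human KY821 cells, read out by a cell viability assay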
# Assay: cells
# Format: functional, cell-based, Homo sapiens
# Settings: Homo sapiens, KY821
# Description: SANGER: Inhibition of human KY821 cell growth in a cell viability assay.
row,Structure (SMILES),IC50
1,C=C(c1ccc(C(=O)O)cc1)c1cc2c(cc1C)C(C)(C)CCC2(C)C [BEXAROTENE],> 8 µM

# System: HO-1-N-1;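 further: growth inhibition of human HO-1-N-1 cells, read out with a cell viability assay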
# Assay: cells
# Format: functional, cell-based, Homo sapiens
# Settings: Homo sapiens, HO-1-N-1
# Description: SANGER: Inhibition of human HO-1-N-1 cell growth in a cell viability assay.
row,Structure (SMILES),IC50
1,C=C(c1ccc(C(=O)O)cc1)c1cc2c(cc1C)C(C)(C)CCC2(C)C [BEXAROTENE],> 8 µM
